Consider two compounds from patent publication US20080299188A1, “CONTROLLED RELEASE DOSAGE FORMS COMBINING IMMEDIATE RELEASE AND SUSTAINTED RELEASE OF LOW-SOLUBILITY DRUG” (Pfizer Inc., priority 2007, published 2008).

Structures can show the parent of a compound that is named as a salt.

What all share (type): physicochemical
Data set [1] is described as follows: microcentrifuge dissolution test in MFD solution. Particulars: during the initial ninety minutes. On the procedure:
Microcentrifuge dissolution tests were performed to evaluate the hydrochloride crystalline salt form of ziprasidone to verify that it was a solubility-improved form of ziprasidone. For this test, a sufficient amount of ziprasidone hydrochloride monohydrate was added to a microcentrifuge test tube so that the concentration of ziprasidone would have been 200 μgA/mL, if all of the ziprasidone had dissolved. The tests were run in duplicate. The tubes were placed in a 37° C. temperature-controlled chamber, and 1.8 mL MFD solution at pH 6.5 and 290 mOsm/kg was added to each respective tube. The samples were quickly mixed using a vortex mixer for about 60 seconds. The samples were centrifuged at 13,000 G at 37° C. for 1 minute prior to collecting a sample. The resulting supernatant solution was then sampled and diluted 1:5 (by volume) with methanol. Samples were analyzed by high-performance liquid chromatography (HPLC) at a UV absorbance of 315 nm using a Zorbax RxC8 Reliance column and a mobile phase consisting of 55% (50 mM potassium dihydrogen phosphate, pH 6.5)/45% acetonitrile. Drug concentration was calculated by comparing UV absorbance of samples to the absorbance of drug standards. The contents of each tube were mixed on the vortex mixer and allowed to stand undisturbed at 37° C. until the next sample was taken. Samples were collected at 4, 10, 20, 40, 90, and 1200 minutes following administration to the MFD solution.
A similar test was performed with the crystalline ziprasidone free base as a control, and a sufficient amount of material was added so that the concentration of compound would have been 200 μgA/mL, if all of the ziprasidone had dissolved.
The concentrations of ziprasidone obtained in these tests were used to determine the maximum dissolved concentration of ziprasidone (“MDC90”) and the area under the concentration-versus-time curve (“AUC90”) during the initial ninety minutes.

Data set [2] is described as follows: solubility in phosphate buffered saline (pH 6.5). Particulars: expressed as the free base. The source says: An example of a drug having a crystalline highly soluble salt form is ziprasidone. Ziprasidone hydrochloride monohydrate has a solubility of about 10 μgA/mL (expressed as the free base) in phosphate buffered saline (pH 6.5), whereas the free base form has a solubility of less than about 0.2 μgA/mL under the same conditions. Thus, crystalline ziprasidone hydrochloride is a solubility-improved form relative to the crystalline free base form of drug.

A short description of data set [3]: in vitro membrane permeation test. On the procedure:
The ziprasidone coated crystals were evaluated in vitro using a membrane permeation test. An Accurel® PP 1E microporous polypropylene membrane was obtained from Membrana GmbH (Wuppertal, Germany). The membrane was washed in isopropyl alcohol and rinsed in methanol in a sonicating bath for 1 minute at ambient temperature, and then allowed to air dry at ambient temperature. The feed side of the membrane was then plasma-treated to render it hydrophilic by placing a sample of the membrane in a plasma chamber. The atmosphere of the plasma chamber was saturated with water vapor at a pressure of 550 mtorr. A plasma was then generated using radio frequency (RF) power inductively coupled into the chamber via annular electrodes at a power setting of 50 watts for 45 seconds. The contact angle of a drop of water placed on the surface of the plasma-treated membrane was about 40°. […]
To form the feed solution, a 1.39 mg sample of the coated crystals was weighed into the feed reservoir. […] Samples were then diluted in […] IPA and analyzed using HPLC. […]
The maximum flux of drug across the membrane (in units of mgA/cm^2-min) was determined by performing a least-squares fit to the data in Table 3 from 0 to 60 minutes to obtain the slope, multiplying the slope by the permeate volume (5 ml), and dividing by the membrane area (4.9 cm^2).

For the compound `O=C1Cc2cc(CCN3CCN(c4nsc5ccccc45)CC3)c(Cl)cc2N1` [Ziprasidone Free Base, ziprasidone], in data set [1], the AUC90 (area under the concentration-versus-time curve) was 120 min·µgA/mL and the MDC90 (maximum dissolved concentration of ziprasidone) amounted to 2 µgA/mL. In data set [2] (listed as free base form), the solubility entry is listed as “less than 0.2 μgA/mL”.

For the compound `O=C1Cc2cc(CCN3CCN(c4nsc5ccccc45)CC3)c(Cl)cc2N1` [Ziprasidone hydrochloride monohydrate, ziprasidone hydrochloride monohydrate], the “Concentration (permeate solution)” value in data set [3] (feed MFD solution 100 μgA/ml if all dissolved, permeate 60 wt % decanol in decane, 37° C., time 0 min) is recorded as 0.5 μgA/ml. This compound also displayed an Initial Flux of Ziprasidone in data set [3] (least-squares fit of Table 3 data from 0 to 60 minutes, permeate volume 5 ml, membrane area 4.9 cm^2) of 0.16 µgA/cm²·min. Further, in data set [1] (hydrochloride monohydrate), the AUC90 (area under the concentration-versus-time curve) stood at 1700 min·µgA/mL and the MDC90 (maximum dissolved concentration of ziprasidone) amounted to 22 µgA/mL. Moreover, the solubility result in data set [2] (hydrochloride monohydrate) was “about 10 μgA/mL”.
